Literature values as cited in patent publication US20220310211A1, “NON-TRANSITORY COMPUTER-READABLE STORAGE MEDIUM, INFORMATION PROCESSING APPARATUS, AND INFORMATION PROCESSING METHOD” (FUJITSU LIMITED, priority 2021, published 2022).

Details: PubChem AID 1006; binary Active/Inactive

Which biological activity does the source give for `Cc1cccc(Cc2cnc(O[Si](C)(C)C)[nH]2)c1C` [CID603597] here?
Its biological activity is “Active”.
